Assay results from patent US20140073639A1 (priority 2012, published 2014).
≈ marks a conversion by molar mass, not a printed value. Where “and” joins values, the source holds several entries; their conditions need not be identical. Equal entries are not always repeated. Where two headings read alike, the source gives them in different places.

Key:
[1] = format: cell-based
B. Anthracis = assay: microbe, parasite or virus in culture; format: cell-based; conditions: for inhibition at 3 µM / inhibition at 10 µM / inhibition at 30 µM: Bacillus anthracis; for inhibition at 3 µM: read-out: B. Anthracis 3 μM (growth inhibition); for inhibition at 10 µM: read-out: B. Anthracis 10 μM (growth inhibition); for inhibition at 30 µM: read-out: B. Anthracis 30 μM (growth inhibition)
S. MRSA = assay: microbe, parasite or virus in culture; format: cell-based; conditions: for inhibition at 3 µM / inhibition at 10 µM / inhibition at 30 µM: Staphylococcus aureus, MRSA; for inhibition at 3 µM: read-out: S. MRSA 3 μM (growth inhibition); for inhibition at 10 µM: read-out: S. MRSA 10 μM (growth inhibition); for inhibition at 30 µM: read-out: S. MRSA 30 μM (growth inhibition)
B. anthracis Sterne = format: in vivo, C57BL/6 mice
S. aureus RN4220 [2] = assay: microbe, parasite or virus in culture; format: cell-based; conditions: Staphylococcus aureus, 37° C., 24 hours
B. anthracis ΔSterne = format: cell-based
S. aureus RN4220 [3] = format: cell-based
S. aureus strain RN4220 = format: cell-based, Staphylococcus aureus
[4] = test system: Gram-positive organisms that also encode 2-epimerases; format: cell-based

| SMILES | MIC, 25% Serum [1] [µM] | MIC, No Serum [1] [µM] | inhibition at 3 µM (B. Anthracis; 3 μM) [%] | inhibition at 10 µM (B. Anthracis; 10 μM) [%] | inhibition at 30 µM (B. Anthracis; 30 μM) [%] | inhibition at 3 µM (S. MRSA; 3 μM) [%] | inhibition at 10 µM (S. MRSA; 10 μM) [%] | inhibition at 30 µM (S. MRSA; 30 μM) [%] | further results |
| --- | --- | --- | --- | --- | --- | --- | --- | --- | --- |
| O=C(O)[C@H](Cc1ccccc1)N1C(=O)/C(=C\c2ccc(-c3ccc(Cl)c(Cl)c3)o2)NC1=S [Cmpd 48] | 250 (≈ 122 µg/mL) | 7.8 (≈ 3.8 µg/mL) | -0.39 | 108 | 107 | -16.1 | 80.6 | 104 |  |
| COc1ccc(-c2ccc(/C=C3/NC(=S)N([C@@H](Cc4ccccc4)C(=O)O)C3=O)o2)cc1Cl [Cmpd 52] | >250 | 62.5 (≈ 30.2 µg/mL) | -5.68 | 27.3 | 95.5 | -7.99 | -11.7 | 82.2 |  |
| O=C(O)[C@H](Cc1ccccc1)N1C(=O)/C(=C\c2ccc(-c3cc(C(F)(F)F)ccc3Cl)o2)NC1=S [Cmpd 53] | >250 | 15.6 (≈ 8.13 µg/mL) | 88.2 | 95.5 | 92.5 | -4.72 | 92.3 | 92.9 |  |
| NC(=O)C(Cc1ccccc1)N1C(=O)/C(=C\c2ccc(-c3ccc(Cl)c(Cl)c3)o2)NC1=S (stereo not drawn) [Cmpd 54] | >250 | >250 | 20.6 | 94.8 | 93 | 2.03 | 30.1 | 57.5 |  |
| CCOC(=O)C(Cc1ccccc1)N1C(=O)/C(=C\c2ccc(-c3ccc(Cl)c(Cl)c3)o2)NC1=S (stereo not drawn) [Cmpd 55] | >250 | >250 |  | -50.8 | -6.41 |  | 0.57 | -2.92 |  |
| CS(=O)(=O)NC(=O)C(Cc1ccccc1)N1C(=O)/C(=C\c2ccc(-c3ccc(Cl)c(Cl)c3)o2)NC1=S (stereo not drawn) [Cmpd 57] | >250 | 15.6 (≈ 8.81 µg/mL) | 45.2 | 96.4 | 90.2 | 3.18 | 30.9 | 58 |  |
| O=C(NS(=O)(=O)C(F)(F)F)C(Cc1ccccc1)N1C(=O)/C(=C\c2ccc(-c3ccc(Cl)c(Cl)c3)o2)NC1=S (stereo not drawn) [Cmpd 58] | >250 | 7.8 (≈ 4.82 µg/mL) | 69.4 | 98.7 | 97.4 | 0.23 | 81.7 | 94.5 |  |
| CCC(C(=O)NS(C)(=O)=O)N1C(=O)/C(=C\c2ccc(-c3ccc(Cl)c(Cl)c3)o2)NC1=S (stereo not drawn) [Cmpd 59] | >250 | 125 (≈ 62.8 µg/mL) | 6.4 | 6.23 | 19.6 | 1.71 | 2.56 | 0.06 |  |
| O=C(O)C(Cc1ccccc1)N1C(=O)/C(=C\c2ccc(-c3ccccc3)o2)NC1=S (stereo not drawn) [Cmpd 60] | >250 | 125 (≈ 52.3 µg/mL) | 2.29 | 11.6 | 18 | -2.55 | -5.71 | -8.8 |  |
| Cc1oc(=O)oc1COC(=O)C(Cc1ccccc1)N1C(=O)/C(=C\c2ccc(-c3ccc(Cl)c(Cl)c3)o2)NC1=S (stereo not drawn) [Cmpd 64] | >250 | >250 | -0.01 | 0.22 | -1.34 | 0.71 | -1.48 | -3.34 |  |
| O=C([O-])C(Cc1ccccc1)N1C(=O)/C(=C\c2ccc(-c3ccc(Cl)c(Cl)c3)o2)NC1=S.[Na+] (stereo not drawn) [Cmpd 65] | >250 | 7.8 |  |  |  |  |  |  | B. Anthracis 3 μM (growth inhibition) (B. Anthracis; 3 μM): 108.67; B. Anthracis 10 μM (growth inhibition) (B. Anthracis; 10 μM): 107.86; B. Anthracis 30 μM (growth inhibition) (B. Anthracis; 30 μM): 104.01; S. MRSA 3 μM (growth inhibition) (S. MRSA; 3 μM): 0.9; S. MRSA 10 μM (growth inhibition) (S. MRSA; 10 μM): 104.72; S. MRSA 30 μM (growth inhibition) (S. MRSA; 30 μM): 105.68 |
| O=C([O-])C(Cc1ccccc1)N1C(=O)/C(=C\c2ccc(-c3cccc(Cl)c3)o2)NC1=S.[Na+] (stereo not drawn) [Cmpd 67] | >250 | 250 | 6.01 | 4.51 | 87.6 | 0.37 | -4.15 | -7.41 |  |
| N#CNC(=O)C(Cc1ccccc1)N1C(=O)/C(=C\c2ccc(-c3cccc(Cl)c3)o2)NC1=S (stereo not drawn) [Cmpd 68] | >250 | 125 (≈ 59.6 µg/mL) | -1.9 | 6.31 | 12.5 | -0.24 | -1.1 | -0.93 |  |
| N#CNC(=O)C(Cc1ccccc1)N1C(=O)/C(=C\c2ccc(-c3ccc(Cl)c(Cl)c3)o2)NC1=S (stereo not drawn) [Cmpd 69] | 250 (≈ 128 µg/mL) | 15.6 (≈ 7.98 µg/mL) | 0.13 | 100 | 99.2 | 0.03 | 0.65 | 97.5 |  |
| O=C(O)C(Cc1ccccc1)N1C(=O)/C(=C\c2ccc(-c3ccnc(Cl)c3)o2)NC1=S (stereo not drawn) [Cmpd 70] | >250 | 125 (≈ 56.7 µg/mL) | 2.54 | 16 | 4.62 | -0.84 | -1.26 | -1.4 |  |
| O=C(O)C(Cc1ccccc1)N1C(=O)/C(=C\c2ccc(Cl)c(Cl)c2)NC1=S (stereo not drawn) [Cmpd 71] | >250 | >250 | 0.05 | -8.93 | -17.3 | -0.86 | -2.74 | -5.12 |  |
| O=C(O)C(Cc1ccccc1)N1C(=O)/C(=C\c2ccc(-c3ncc(Cl)cc3Cl)o2)NC1=S (stereo not drawn) [Cmpd 72] | 250 (≈ 122 µg/mL) | 62.5 (≈ 30.5 µg/mL) | -13.5 | 9.07 | 98.1 | -2.17 | -5.02 | 53 |  |
| O=C(O)C(Cc1ccccc1)N1C(=O)/C(=C\c2ccc(-c3ccc(Br)cc3)s2)NC1=S (stereo not drawn) [Epimerox, 2-{4-[5-(4-bromophenyl)-thiophen-2-ylmethylene]-5-oxo-2-thioxo-imidazolidin-1-yl}-3-phenyl-propionic acid] |  |  |  |  |  |  |  |  | B. anthracis in the major organs (B. anthracis Sterne; after 2 days): not observed; B. anthracis in the major organs (B. anthracis Sterne; at 20 hours): detected; animals survived 14 days (B. anthracis Sterne; mouse, in vivo): 100% and 66%; MIC (S. aureus RN4220 [2]): 8 µg/mL and 16 µM; concentrations that effectively blocked growth (B. anthracis ΔSterne): above 3 μM; MIC plateau, serial passage (S. aureus RN4220 [3]): 12 μg m1^−1; starting MIC, serial passage (S. aureus RN4220 [3]): 5.0 μg m1^−1; Epimerox concentrations at which strain did not grow (S. aureus strain RN4220): above 7.5 μm1^−1; growth of S. aureus (S. aureus strain RN4220): grew very poorly; growth of many other Gram-positive organisms [4]: inhibited the growth |
